Patent US7271165B2, “Rifamycin analogs and uses thereof” (priority 2003, dated 2007)
Converted amounts (≈) assume the structure as drawn.

How the values were obtained:
E. faecalis = test: MIC assay, E. faecalis; assay type: cell-based, Enterococcus faecalis
H. flu = assay type: cell-based, H. influenza; conditions: H. flu
S. aureus = test: MIC assay, S. aureus; assay type: cell-based, Staphylococcus aureus
E coli = test: MIC assay, E coli; assay type: cell-based
S. pneumo. = test: MIC assay, S. pneumo.; assay type: cell-based, Streptococcus pneumoniae

| SMILES | MIC (μg/mL) E. faecalis (E. faecalis) | MIC (μg/mL) H. flu (H. flu) | MIC (μg/mL) S. aureus (S. aureus) | MIC (μg/mL) E coli (E coli) | MIC (μg/mL) S. pneumo. (S. pneumo.) |
| --- | --- | --- | --- | --- | --- |
| CCOC(=O)NCC1CCN(c2cc(O)c3nc4c5c6c7c(C)c(O)c5c(=O)c(c-4oc3c2)NC(=O)C(C)=CC=CC(C)C(O)C(C)C(O)C(C)C(O)C(C)C(OC)C=COC(C)(O7)C6=O)CC1 (stereo not shown) [Compound 60, 25-O-deacetyl-3′-hydroxy-5′-[4-ethylcarbamylmethyl-1-piperidinyl]benzoxazinorifamycin] | 0.5 µg/mL (≈ 0.53 µM) | 0.06 µg/mL (≈ 0.0636 µM) | 0.008 µg/mL (≈ 0.00848 µM) | >8 µg/mL | 0.0005 µg/mL (≈ 0.00053 µM) |
| COC1C=COC2(C)Oc3c(C)c(O)c4c(=O)c(c5oc6cc(N7CCC(CCO)CC7)cc(O)c6nc-5c4c3C2=O)NC(=O)C(C)=CC=CC(C)C(O)C(C)C(O)C(C)C(OC(C)=O)C1C (stereo not shown) [Compound 61, 3′-hydroxy-5′-[4-(2-hydroxyethyl)-1-piperidinyl]benzoxazinorifamycin] | 1 µg/mL (≈ 1.08 µM) | 0.25 µg/mL (≈ 0.269 µM) | 0.004 µg/mL (≈ 0.00431 µM) | >8 µg/mL | 0.00012 µg/mL (≈ 0.000129 µM) |
| COC1C=COC2(C)Oc3c(C)c(O)c4c(=O)c(c5oc6cc(N7CCC(c8ccccc8)CC7)cc(O)c6nc-5c4c3C2=O)NC(=O)C(C)=CC=CC(C)C(O)C(C)C(O)C(C)C(O)C1C (stereo not shown) [Compound 62, 25-O-deacetyl-3′-hydroxy-5′-[4-phenyl-1-piperidinyl]benzoxazinorifamycin] | 8 µg/mL (≈ 8.71 µM) | 0.5 µg/mL (≈ 0.545 µM) | 0.015 µg/mL (≈ 0.0163 µM) | >8 µg/mL | 0.008 µg/mL (≈ 0.00871 µM) |
| COCCOC(=O)NC1CCN(c2cc(O)c3nc4c5c6c7c(C)c(O)c5c(=O)c(c-4oc3c2)NC(=O)C(C)=CC=CC(C)C(O)C(C)C(O)C(C)C(O)C(C)C(OC)C=COC(C)(O7)C6=O)CC1 (stereo not shown) [Compound 63, 25-O-deacetyl-3′-hydroxy-5′-[4-methoxyethylcarbamyl-1-piperidinyl]benzoxazinorifamycin] | 1 µg/mL (≈ 1.04 µM) | 0.25 µg/mL (≈ 0.261 µM) | 0.008 µg/mL (≈ 0.00834 µM) | 8 µg/mL (≈ 8.34 µM) | 0.002 µg/mL (≈ 0.00209 µM) |
| COC1C=COC2(C)Oc3c(C)c(O)c4c(=O)c(c5sc6cc(N7CC(C)NC(C)C7)ccc6nc-5c4c3C2=O)NC(=O)C(C)=CC=CC(C)C(O)C(C)C(O)C(C)C(OC(C)=O)C1C [Compound 64, 5′-[(3R,5S)-3,5-dimethyl-1-piperazinyl]benzthiazinorifamycin] | 0.12 µg/mL (≈ 0.131 µM) | 0.25 µg/mL (≈ 0.274 µM) | 0.004 µg/mL (≈ 0.00438 µM) | 4 µg/mL (≈ 4.38 µM) | 0.00012 µg/mL (≈ 0.000131 µM) |
| COC1C=COC2(C)Oc3c(C)c(O)c4c(=O)c(c5sc6cc(N7CC(C)NC(C)C7)ccc6nc-5c4c3C2=O)NC(=O)C(C)=CC=CC(C)C(O)C(C)C(O)C(C)C(O)C1C [Compound 65, 25-O-deacetyl-5′-[(3R,5S)-3,5-dimethyl-1-piperazinyl]benzthiazinorifamycin] | 0.12 µg/mL (≈ 0.138 µM) | 0.12 µg/mL (≈ 0.138 µM) | 0.002 µg/mL (≈ 0.0023 µM) | 2 µg/mL (≈ 2.3 µM) | 0.00025 µg/mL (≈ 0.000287 µM) |
| COC1C=COC2(C)Oc3c(C)c(O)c4c(=O)c(c5oc6cc(N7CCC(CCO)CC7)cc(O)c6nc-5c4c3C2=O)NC(=O)C(C)=CC=CC(C)C(O)C(C)C(O)C(C)C(O)C1C (stereo not shown) [Compound 66, 25-O-deacetyl-3′-hydroxy-5′-[4-(2-hydroxyethyl)-1-piperidinyl]benzoxazinorifamycin] | 0.12 µg/mL (≈ 0.135 µM) | 0.12 µg/mL (≈ 0.135 µM) | 0.004 µg/mL (≈ 0.00451 µM) | 4 µg/mL (≈ 4.51 µM) | 0.0005 µg/mL (≈ 0.000564 µM) |
| CCCS(=O)(=O)NC1CCN(c2cc(O)c3nc4c5c6c7c(C)c(O)c5c(=O)c(c-4oc3c2)NC(=O)C(C)=CC=CC(C)C(O)C(C)C(O)C(C)C(O)C(C)C(OC)C=COC(C)(O7)C6=O)CC1 (stereo not shown) [Compound 67] | 0.5 µg/mL (≈ 0.519 µM) | 0.12 µg/mL (≈ 0.125 µM) | 0.008 µg/mL (≈ 0.00831 µM) | >8 µg/mL | 0.001 µg/mL (≈ 0.00104 µM) |
| COC1C=COC2(C)Oc3c(C)c(O)c4c(=O)c(c5sc6cc(N7CC(C)N(CC8CC8)CC7C)ccc6nc-5c4c3C2=O)NC(=O)C(C)=CC=CC(C)C(O)C(C)C(O)C(C)C(OC(C)=O)C1C [Compound 68, 5′-[(2S,5R)-4-(cyclopropylmethyl)-2,5-dimethylpiperazinyl]benzthiazinorifamycin] | 2 µg/mL (≈ 2.07 µM) | 0.5 µg/mL (≈ 0.517 µM) | 0.06 µg/mL (≈ 0.062 µM) | >8 µg/mL | 0.0005 µg/mL (≈ 0.000517 µM) |
| COC1C=COC2(C)Oc3c(C)c(O)c4c(=O)c(c5sc6cc(N7CCC(N(C)C)CC7)ccc6nc-5c4c3C2=O)NC(=O)C(C)=CC=CC(C)C(O)C(C)C(O)C(C)C(OC(C)=O)C1C (stereo not shown) [Compound 69, 5′-[4-N,N-dimethylamino-1-piperidinyl]benzthiazinorifamycin] | 0.5 µg/mL (≈ 0.539 µM) | 0.5 µg/mL (≈ 0.539 µM) | 0.015 µg/mL (≈ 0.0162 µM) | 4 µg/mL (≈ 4.31 µM) | 0.00025 µg/mL (≈ 0.00027 µM) |
| COC1C=COC2(C)Oc3c(C)c(O)c4c(=O)c(c5sc6cc(N7CC(C)N(CC8CC8)CC7C)ccc6nc-5c4c3C2=O)NC(=O)C(C)=CC=CC(C)C(O)C(C)C(O)C(C)C(O)C1C [Compound 70, 25-O-deacetyl-5′-[(2S,5R)-4-(cyclopropylmethyl)-2,5-dimethylpiperazinyl]benzthiazinorifamycin] | 1 µg/mL (≈ 1.08 µM) | 1 µg/mL (≈ 1.08 µM) | 0.03 µg/mL (≈ 0.0324 µM) | >8 µg/mL | 0.001 µg/mL (≈ 0.00108 µM) |
| COC1C=COC2(C)Oc3c(C)c(O)c4c(=O)c(c5oc6cc(N7CCC(C)(N(C)C)CC7)cc(O)c6nc-5c4c3C2=O)NC(=O)C(C)=CC=CC(C)C(O)C(C)C(O)C(C)C(OC(C)=O)C1C (stereo not shown) [Compound 71, 3′-hydroxy-5′-[4-methyl-4-N,N-dimethylamino-1-piperidinyl]benzoxazinorifamycin] | 0.25 µg/mL (≈ 0.266 µM) | 0.5 µg/mL (≈ 0.531 µM) | 0.008 µg/mL (≈ 0.0085 µM) | 4 µg/mL (≈ 4.25 µM) | 0.00012 µg/mL (≈ 0.000128 µM) |
| COC1C=COC2(C)Oc3c(C)c(O)c4c(=O)c(c5oc6cc(N7CCC(C)(NC(C)=O)CC7)cc(O)c6nc-5c4c3C2=O)NC(=O)C(C)=CC=CC(C)C(O)C(C)C(O)C(C)C(OC(C)=O)C1C (stereo not shown) [Compound 72, 3′-hydroxy-5′-[4-methyl-4-acetylamino-1-piperidinyl]benzoxazinorifamycin] | 2 µg/mL (≈ 2.09 µM) | 0.5 µg/mL (≈ 0.524 µM) | 0.008 µg/mL (≈ 0.00838 µM) | >8 µg/mL | 0.00025 µg/mL (≈ 0.000262 µM) |
| COC1C=COC2(C)Oc3c(C)c(O)c4c(=O)c(c5oc6cc(N7CCC(C)(N(C)C)CC7)cc(O)c6nc-5c4c3C2=O)NC(=O)C(C)=CC=CC(C)C(O)C(C)C(O)C(C)C(O)C1C (stereo not shown) [Compound 73, 25-O-deacetyl-3′-hydroxy-5′-[4-methyl-4-N,N-dimethylamino-1-piperidinyl]benzoxazinorifamycin] | 0.03 µg/mL (≈ 0.0334 µM) | 0.12 µg/mL (≈ 0.133 µM) | 0.002 µg/mL (≈ 0.00222 µM) | 2 µg/mL (≈ 2.22 µM) | 0.00025 µg/mL (≈ 0.000278 µM) |
